This assay in a line: Biochemical Assay: EZH2 biochemical assay (IC50): Compound potencies were assessed through incorporation of 3H-SAM into a biotinylated H3 peptide. Specifically, 30 pM PRC2 containing wt EZH2 (pentameric complex prepared in-house) was pre-incubated with 450 nM SAM, 450 nM 3H-SAM, 2 μM H3K27me3 activating peptide (H2N-RKQLATKAAR(Kme3)SAPATGGVKKP-amide) and compounds (as 10 point duplicate dose response titrations in DMSO, final assay 0.8% DMSO (v/v)) for 3-5 h in 50 mM Tris (pH 8.5), 1 mM DTT, 0.07 mM Brij-35, 0.1% BSA, and 0.8% DMSO in a total volume of 12.5 μl. Reaction was initiated with biotinylated H3 substrate peptide (H2N-RKQLATKAAR(Kmel)SAPATGGVKKP-NTPEGBiot) as a 2 μM stock in 12.5 μl of buffer and allowed to react at room temperature for 18-22 h. Quenching was accomplished by addition of 20 μl of STOP solution (50 mM Tris (pH 8.5), 200 mM EDTA, 2 mM SAH). 35 μl of the quenched solution was transferred to streptavidin coated FlashPlates (PerkinElmer), incubated 1-2 h, washed, and read in a TopCount Reader (PerkinElmer). IC50s were calculated in Genedata Screener using non-linear least square four parameter fits, where the four parameters were IC50, Hill slope, pre-transitional baseline (0% INH), and post-transitional baseline (100% INH).

In the case of `Cc1cc(Cl)c(CNC(=O)c2cc(Cl)c3c(c2C)OC(C)(C2CCN(CC(F)(F)F)CC2)O3)c(=O)[nH]1` (single isomer, unassigned), the IC50 was > 10 nM.

The values are drawn from ChEMBL document CHEMBL5729022, “Modulators of methyl modifying enzymes, compositions and uses thereof” (2022).
